{
  "source": "patent US8937167B2",
  "about": "(Washington University, priority 2009, dated 2015);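 further: hemagglutination inhibition of guinea pig erythrocytes agglutinated by type 1 piliated uropathogenic E. coli via FimH mannose binding, quantified through serial dilutions of compound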",
  "data": [
    {"biological_target": "FimH (Escherichia coli, UniProt Q1R2J4)", "conditions": "not given", "units": {"HAI Titer EC>90": "mM"}, "values": [
      {"smiles": "CNC(=O)c1cncc(-c2ccc(OC3OC(CO)C(O)C(O)C3O)cc2)c1", "note": "(centres unmarked)", "HAI Titer EC>90": 0.0005},
      {"smiles": "CC(=O)Nc1ccccc1OC1OC(CO)C(O)C(O)C1O", "note": "(centres unmarked) [Compound 1ZFH95, N-[2-[3,4,5-trihydroxy-6-(hydroxymethyl)tetrahydropyran-2-yl]oxyphenyl]acetamide]", "HAI Titer EC>90": 0.125},
      {"smiles": "COC(=O)c1cccc(OC2OC(CO)C(O)C(O)C2O)c1", "note": "(centres unmarked) [Compound 1ZFH101, methyl 3-[3,4,5-trihydroxy-6-(hydroxymethyl)tetrahydropyran-2-yl]oxybenzoate]", "HAI Titer EC>90": 0.006},
      {"smiles": "O=C(NCCCCOC1OC(CO)C(O)C(O)C1O)c1ccc(C(=O)O)c(-c2c3ccc(=O)cc-3oc3cc(O)ccc23)c1", "note": "(centres unmarked) [Compound 1ZFH134A, 2-(3-hydroxy-6-oxo-xanthen-9-yl)-4-[4-[3,4,5-trihydroxy-6-(hydroxymethyl)tetrahydropyran-2-yl]oxybutylcarbamoyl]benzoic acid]", "HAI Titer EC>90": 0.125},
      {"smiles": "O=C(NCCCCOC1OC(CO)C(O)C(O)C1O)c1ccc(-c2c3ccc(=O)cc-3oc3cc(O)ccc23)c(C(=O)O)c1", "note": "(centres unmarked) [Compound 1ZFH134B, 2-(3-hydroxy-6-oxo-xanthen-9-yl)-5-[4-[3,4,5-trihydroxy-6-(hydroxymethyl)tetrahydropyran-2-yl]oxybutylcarbamoyl]benzoic acid]", "HAI Titer EC>90": 0.125},
      {"smiles": "O=[N+]([O-])c1ccc(COC2OC(CO)C(O)C(O)C2O)cc1", "note": "(centres unmarked) [Compound 1ZFH152, 2-(hydroxymethyl)-6-[(4-nitrophenyl)methoxy]tetrahydropyran-3,4,5-triol]", "HAI Titer EC>90": 0.06},
      {"smiles": "OCC1OC(Oc2ccc3ccccc3c2)C(O)C(O)C1O", "note": "(centres unmarked) [Compound 1ZFH185, 2-(hydroxymethyl)-6-(2-naphthyloxy)tetrahydropyran-3,4,5-triol]", "HAI Titer EC>90": 0.006},
      {"smiles": "COC(=O)Cc1cc(OC2OC(CO)C(O)C(O)C2O)ccc1O", "note": "(centres unmarked) [Compound 1ZFH187, methyl 2-[2-hydroxy-5-[3,4,5-trihydroxy-6-(hydroxymethyl)tetrahydropyran-2-yl]oxy-phenyl]acetate]", "HAI Titer EC>90": 0.015},
      {"smiles": "O=C(c1ccccc1)c1cccc(OC2OC(CO)C(O)C(O)C2O)c1", "note": "(centres unmarked) [Compound 1ZFH263, phenyl-[3-[3,4,5-trihydroxy-6-(hydroxymethyl)tetrahydropyran-2-yl]oxyphenyl]methanone]", "HAI Titer EC>90": 0.008},
      {"smiles": "COC(=O)c1ccc(-c2cccc(OC3OC(CO)C(O)C(O)C3O)c2)cc1", "note": "(centres unmarked) [Compound 1ZFH265, methyl 4-[3-[3,4,5-trihydroxy-6-(hydroxymethyl)tetrahydropyran-2-yl]oxyphenyl]benzoate]", "HAI Titer EC>90": 0.006},
      {"smiles": "OCC1OC(Oc2cc(C(F)(F)F)cc(C(F)(F)F)c2)C(O)C(O)C1O", "note": "(centres unmarked) [Compound 1ZFH274, 2-[3,5-bis(trifluoromethyl)phenoxy]-6-(hydroxymethyl)tetrahydropyran-3,4,5-triol]", "HAI Titer EC>90": 0.032},
      {"smiles": "OCC1OC(Oc2cc(F)c(F)c(F)c2)C(O)C(O)C1O", "note": "(centres unmarked) [Compound 1ZFH282, 2-(hydroxymethyl)-6-(3,4,5-trifluorophenoxy)tetrahydropyran-3,4,5-triol]", "HAI Titer EC>90": 0.125},
      {"smiles": "OCC1OC(Oc2ccc(Br)cc2)C(O)C(O)C1O", "note": "(centres unmarked) [Compound 2ZFH46, 2-(4-bromophenoxy)-6-(hydroxymethyl)tetrahydropyran-3,4,5-triol]", "HAI Titer EC>90": 0.032},
      {"smiles": "O=[N+]([O-])c1cccc(OC2OC(CO)C(O)C(O)C2O)c1", "note": "(centres unmarked) [Compound 2ZFH100, 2-(hydroxymethyl)-6-(3-nitrophenoxy)tetrahydropyran-3,4,5-triol]", "HAI Titer EC>90": 0.016},
      {"smiles": "N#Cc1ccccc1OC1OC(CO)C(O)C(O)C1O", "note": "(centres unmarked) [Compound 2ZFH108, 2-[3,4,5-trihydroxy-6-(hydroxymethyl)tetrahydropyran-2-yl]oxybenzonitrile]", "HAI Titer EC>90": 0.006},
      {"smiles": "Cc1ccc(OC2OC(CO)C(O)C(O)C2O)cc1", "note": "(centres unmarked) [Compound 2ZFH175, 2-(hydroxymethyl)-6-(4-methylphenoxy)tetrahydropyran-3,4,5-triol]", "HAI Titer EC>90": 0.008},
      {"smiles": "COc1ccc(OC2OC(CO)C(O)C(O)C2O)cc1", "note": "(centres unmarked) [Compound 2ZFH176, 2-(hydroxymethyl)-6-(4-methoxyphenoxy)tetrahydropyran-3,4,5-triol]", "HAI Titer EC>90": 0.008},
      {"smiles": "OCC1OC(Oc2ccccc2Cl)C(O)C(O)C1O", "note": "(centres unmarked) [Compound 2ZFH180, 2-(2-chlorophenoxy)-6-(hydroxymethyl)tetrahydropyran-3,4,5-triol]", "HAI Titer EC>90": 0.004},
      {"smiles": "OCC1OC(Oc2cccc(Cl)c2)C(O)C(O)C1O", "note": "(centres unmarked) [Compound 2ZFH181, 2-(3-chlorophenoxy)-6-(hydroxymethyl)tetrahydropyran-3,4,5-triol]", "HAI Titer EC>90": 0.008},
      {"smiles": "O=C(NCCCCCCCCNC(=O)c1cccc(-c2ccc(OC3OC(CO)C(O)C(O)C3O)cc2)c1)c1cccc(-c2ccc(OC3OC(CO)C(O)C(O)C3O)cc2)c1", "note": "(centres unmarked) [Compound 2ZFH234, 3-[4-[3,4,5-trihydroxy-6-(hydroxymethyl)tetrahydropyran-2-yl]oxyphenyl]-N-[8-[[3-[4-[3,4,5-trihydroxy-6-(hydroxymethyl)tetrahydropyran-2-yl]oxyphenyl]benzoyl]amino]octyl]benzamide]", "HAI Titer EC>90": 0.002},
      {"smiles": "COC(=O)c1cccc(-c2ccc(OC3OC(CO)C(O)C(O)C3O)cc2C(=O)OC)c1", "note": "(centres unmarked) [Compound 2ZFH244, methyl 2-(3-methoxycarbonyl-phenyl)-5-[3,4,5-trihydroxy-6-(hydroxymethyl)tetrahydropyran-2-yl]oxy-benzoate]", "HAI Titer EC>90": 0.001},
      {"smiles": "CNC(=O)c1cccc(-c2ccc(OC3OC(CO)C(O)C(O)C3O)cc2C(=O)OC)c1", "note": "(centres unmarked) [Compound 2ZFH265, methyl 2-[3-(methylcarbamoyl)phenyl]-5-[3,4,5-trihydroxy-6-(hydroxymethyl)tetrahydropyran-2-yl]oxy-benzoate]", "HAI Titer EC>90": 0.002},
      {"smiles": "CNC(=O)c1cccc(-c2ccc(OC3OC(CO)C(O)C(O)C3O)cc2C(=O)NC)c1", "note": "(centres unmarked) [Compound 2ZFH266, N-methyl-2-[3-(methylcarbamoyl)phenyl]-5-[3,4,5-trihydroxy-6-(hydroxymethyl)tetrahydropyran-2-yl]oxy-benzamide]", "HAI Titer EC>90": 0.012},
      {"smiles": "COC(=O)c1cc2cc(OC3OC(CO)C(O)C(O)C3O)ccc2s1", "note": "(centres unmarked) [Compound 2ZFH297, methyl 5-[3,4,5-trihydroxy-6-(hydroxymethyl)tetrahydropyran-2-yl]oxybenzothiophene-2-carboxylate]", "HAI Titer EC>90": 0.002},
      {"smiles": "COC(=O)c1cc2ccc(OC3OC(CO)C(O)C(O)C3O)cc2s1", "note": "(centres unmarked) [Compound 2ZFH304, methyl 6-[3,4,5-trihydroxy-6-(hydroxymethyl)tetrahydropyran-2-yl]oxybenzothiophene-2-carboxylate]", "HAI Titer EC>90": 0.002},
      {"smiles": "OCc1cccc(-c2ccc(OC3OC(CO)C(O)C(O)C3O)cc2)c1", "note": "(centres unmarked) [Compound 3ZFH18, 2-(hydroxymethyl)-6-[4-[3-(hydroxymethyl)phenyl]phenoxy]tetrahydropyran-3,4,5-triol]", "HAI Titer EC>90": 0.003},
      {"smiles": "OCc1ccc(-c2ccc(OC3OC(CO)C(O)C(O)C3O)cc2)cc1", "note": "(centres unmarked) [Compound 3ZFH24, 2-(hydroxymethyl)-6-[4-[4-(hydroxymethyl)phenyl]phenoxy]tetrahydropyran-3,4,5-triol]", "HAI Titer EC>90": 0.006},
      {"smiles": "OCC1OC(Oc2ccc(-c3cccc(O)c3)cc2)C(O)C(O)C1O", "note": "(centres unmarked) [Compound 3ZFH44, 2-(hydroxymethyl)-6-[4-(3-hydroxyphenyl)phenoxy]tetrahydropyran-3,4,5-triol]", "HAI Titer EC>90": 0.004},
      {"smiles": "N#Cc1ccccc1-c1ccc(OC2OC(CO)C(O)C(O)C2O)cc1", "note": "(centres unmarked) [Compound 3ZFH64, 2-[4-[3,4,5-trihydroxy-6-(hydroxymethyl)tetrahydropyran-2-yl]oxyphenyl]benzonitrile]", "HAI Titer EC>90": 0.002},
      {"smiles": "NC(=O)c1ccccc1-c1ccc(OC2OC(CO)C(O)C(O)C2O)cc1", "note": "(centres unmarked) [Compound 3ZFH66, 2-[4-[3,4,5-trihydroxy-6-(hydroxymethyl)tetrahydropyran-2-yl]oxyphenyl]benzamide]", "HAI Titer EC>90": 0.006},
      {"smiles": "N#Cc1cccc(-c2ccc(OC3OC(CO)C(O)C(O)C3O)cc2)c1", "note": "(centres unmarked) [Compound 3ZFH68, 3-[4-[3,4,5-trihydroxy-6-(hydroxymethyl)tetrahydropyran-2-yl]oxyphenyl]benzonitrile]", "HAI Titer EC>90": 0.001},
      {"smiles": "N#Cc1ccc(-c2ccc(OC3OC(CO)C(O)C(O)C3O)cc2)cc1", "note": "(centres unmarked) [Compound 3ZFH70, 4-[4-[3,4,5-trihydroxy-6-(hydroxymethyl)tetrahydropyran-2-yl]oxyphenyl]benzonitrile]", "HAI Titer EC>90": 0.008},
      {"smiles": "O=[N+]([O-])c1ccc(-c2ccc(OC3OC(CO)C(O)C(O)C3O)cc2)cc1", "note": "(centres unmarked) [Compound 3ZFH72, 2-(hydroxymethyl)-6-[4-(4-nitrophenyl)phenoxy]tetrahydropyran-3,4,5-triol]", "HAI Titer EC>90": 0.002},
      {"smiles": "OCC1OC(Oc2ccc(-c3cccnc3)cc2)C(O)C(O)C1O", "note": "(centres unmarked) [Compound 3ZFH93, 2-(hydroxymethyl)-6-[4-(3-pyridyl)phenoxy]tetrahydropyran-3,4,5-triol]", "HAI Titer EC>90": 0.002},
      {"smiles": "OCC1OC(Oc2ccc(-c3ccncc3)cc2)C(O)C(O)C1O", "note": "(centres unmarked) [Compound 3ZFH96, 2-(hydroxymethyl)-6-[4-(4-pyridyl)phenoxy]tetrahydropyran-3,4,5-triol]", "HAI Titer EC>90": 0.002},
      {"smiles": "OCC1OC(Oc2ccc(-c3ccccc3O)cc2)C(O)C(O)C1O", "note": "(centres unmarked) [Compound 3ZFH111, 2-(hydroxymethyl)-6-[4-(2-hydroxyphenyl)phenoxy]tetrahydropyran-3,4,5-triol]", "HAI Titer EC>90": 0.008},
      {"smiles": "OCc1ccccc1-c1ccc(OC2OC(CO)C(O)C(O)C2O)cc1", "note": "(centres unmarked) [Compound 3ZFH114, 2-(hydroxymethyl)-6-[4-[2-(hydroxymethyl)phenyl]phenoxy]tetrahydropyran-3,4,5-triol]", "HAI Titer EC>90": 0.016}
    ]},
    {"biological_target": "FimH (Escherichia coli, UniProt Q1R2J4)", "conditions": "Table 21", "units": {"HAI Titer EC>50": "µM"}, "values": [
      {"smiles": "COC(=O)c1cccc(-c2ccc(OC3OC(CO)C(O)C(O)C3O)cc2)c1", "note": "(centres unmarked) [Compound 2ZFH238]", "HAI Titer EC>50": ">2500"}
    ]},
    {"biological_target": "FimH (Escherichia coli, UniProt Q1R2J4)", "conditions": "Table 21; ZFH/JWJ codes", "units": {"HAI Titer EC>50": "µM"}, "values": [
      {"smiles": "COC(=O)COC1OC(CO)C(O)C(O)C1O", "note": "(centres unmarked) [Compound 1ZFH74]", "HAI Titer EC>50": 500.000},
      {"smiles": "O=C(NCCCCOC1OC(CO)C(O)C(O)C1O)c1ccc(-c2c3ccc(=O)cc-3oc3cc(O)ccc23)c(C(=O)O)c1", "note": "(centres unmarked) [Compound 1ZFH134]", "HAI Titer EC>50": 125.000}
    ]},
    {"biological_target": "FimH (Escherichia coli, UniProt Q1R2J4)", "conditions": "mM", "units": {"HAI Titer EC>90": "mM"}, "values": [
      {"smiles": "NC1C(O)C(CO)OC(OCc2ccccc2)C1O", "note": "[Benzyl 3-amino-3-deoxy-a-D-mannoside, reference compound]", "HAI Titer EC>90": ">1"}
    ]}
  ]
}
